Assay results as given in patent US20240180895A1, “USE OF KAPPA OPIOID RECEPTOR AGONISTS TO TREAT CARDIOVASCULAR DISEASE” (Board of Supervisors of Louisiana State University and …, priority 2021, published 2024).

What was measured:
Assay type in all cases: in vivo, rat
[1] = test system: conscious Sprague-Dawley rats; assay: Acute cardiovascular and renal excretory studies with ICV or IV norBNI pretreatment (Example 4); conditions: for Urine osmolality / Urine potassium concentration [K+] / Urine sodium concentration [Na+]: total 90-min urine
Experimental: Male Sprague-Dawley rats (Envigo Labs, Indianapolis, IN) were individually housed, allowed tap water and standard rodent diet ad libitum, and kept under a 12-hour light-dark cycle. Rats used in these experiments weighed between 300 and 350 grams and were randomly assigned to experimental groups. All procedures were conducted in accordance with the National Institutes of Health guidelines for the care and use of animals and approved by the Louisiana State University Health Sciences Center Institutional Animal Care and Use Committee.
Aseptic technique was adhered to for all surgeries and detailed surgical methods were followed as previously described.^14 Briefly, 3-5 days before experimentation, rats requiring central ventricle access for administration of drug/vehicle into the brain were anesthetized with ketamine and xylazine and a stainless-steel cannula was stereotaxically implanted into the right lateral cerebral ventricle.^14
On the morning of the experiment, rats were anesthetized and maintained with inhaled 2% isoflurane, and polyethylene catheters were surgically placed into the left femoral artery, left femoral vein, and urinary bladder.^15.16 Following surgery, rats were placed in an elevated restrainer for recovery and collection of urine from an indwelling bladder catheter.^15 After completion of experimental protocols, rats were anesthetized with isoflurane and decapitated.
During stabilization of cardiovascular and renal excretory parameters, rats received an isotonic saline infusion (55 μl/min), which lasted throughout the duration of the experiment. To record mean arterial pressure (MAP) and heart rate (HR), arterial catheters were connected to a pressure transducer (MLT0670, ADInstruments, Sydney, Australia), which was connected to Powerlab 8/30 (ADInstruments) and visualized using LabChart software (v8.1.5; ADInstruments). After one hour of recovery from surgery, rats were pretreated with the KOR antagonist norBNI or isotonic saline vehicle through either an intracerebroventricular (ICV) catheter or intravenous (IV) catheter. […] Next, drug or vehicle (isotonic saline) was injected into the femoral vein and urine samples were collected every 10 minutes during a 90-minute experimental period. The following drug concentrations were used: nalfurafine 5 μg/kg, difelikefalin 10 μg/kg, norBNI 30 mg/kg (IV), norBNI 1 μg/5 μL (ICV). All groups are n=6. Urine sodium and potassium were measured using a flame photometer (model 943; Instrumentation Laboratories, Lexington, MA). Urine volume was measured gravimetrically, and urine osmolality was measured using a vapor pressure osmometer (model 5600; WESCOR, Logan, UT).
All results are expressed as mean±SEM. For determining statistically different changes at time points within a treatment group, means were compared to the control value using 2-way ANOVA with repeated measures and a post hoc Dunnett test following confirmation of a significant F value. For statistically different changes at individual time points between treatment groups, mean values were compared using 2-way ANOVA with repeated measures and a post hoc Sidak test following confirmation of a significant/value. For means between groups for total urine output, urine sodium concentration, urine potassium concentration, and urine osmolality, a Student/test was used. Statistical significance was characterized as P<0.05 and statistics were performed on Prism 7.05 software (GraphPad Software, Inc, San Diego, CA).

[2] = test system: Sprague-Dawley rats placed on a low-salt diet; assay: Reversal of furosemide diuretic resistance by difelikefalin in rats on a low sodium diet (FIG. 16)
Experimental: Male Sprague-Dawley rats were placed in individual metabolic cages in a room with 12-hour automatic light on/off control and allowed tap water. For these studies, rats were placed on a low-salt diet (0.1% NaCl) for one week prior to and throughout the experimental protocol. […] For the first two (2) days (control period), rats were administered vehicle (5% NaOH; 1 M PBS, IP) in the morning (9:00 am) and urine was then collected for 5-hours.

Sprague-Dawley rats [3] = assay: Prevention of diuretic resistance to once daily furosemide by difelikefalin, 24-hour urine (FIG. 14)
Experimental: Male Sprague-Dawley rats were placed in individual metabolic cages in a room with 12-hour automatic light on/off control and allowed tap water and rodent chow ad libitum. Over the next two (2) days (control period), rats were administered vehicle (5% NaOH; 1 M PBS, IP) in the morning (9:00 am) and urine was then collected for 24-hours.

Sprague-Dawley rats [4] = assay: Reversal of oral furosemide diuretic resistance by oral nalfurafine (FIG. 17)
Experimental: (§1) Male Sprague-Dawley rats were placed in individual metabolic cages in a room with 12-hour automatic light on/off control and allowed tap water and rodent chow ad libitum. Over the next two (2) days (control period), rats were administered vehicle (5% NaOH; 1 M PBS) orally (gavage) in the morning (9:00 am) and afternoon (2:00 pm) and urine was collected for 5-hours after the first oral treatment. […] This was repeated for 8 consecutive days (experimental period).

[5] = test system: conscious Sprague-Dawley rats; assay: Acute cardiovascular and renal excretory studies, i.v. bolus (Example 3)
Experimental: (§2) Animals: Male Sprague-Dawley (SD) rats (Envigo Labs, Indianapolis, IN), 300-350 g, were individually housed under a 12 h light-dark cycle and allowed tap water and standard rodent diet ad libitum. Rats were randomly assigned to experimental groups for all acute and subacute studies. All procedures were approved by the Louisiana State University Health Sciences Center Institutional Animal Care and Use Committee and conducted in accordance with the National Institutes of Health guidelines for the care and use of animals.
Surgical Procedures: Aseptic technique was followed for all surgical procedures. On the morning of the experiment, rats were anesthetized with and maintained under inhaled 2% isoflurane, and polyethylene catheters (PE50; BD Diagnostics, Sparks, MD) were surgically inserted into the left femoral vein and left femoral artery for the infusion of saline and/or drug administration and the recording of arterial blood pressure, respectively. Subsequently, a suprapubic incision was made and a flanged polyethylene catheter (PE240; BD Diagnostics, Sparks, MD) was inserted into the bladder, exteriorized, and sutured to surrounding muscle and skin. Rats were then placed in an elevated restrainer (Krowicki & Kapusta, 2011) to recover from surgery and allow collection of urine. When acute experimental protocols were completed, rats were anesthetized via isoflurane and decapitated.
Acute Cardiovascular and Renal Excretory Studies: Following surgery, rats received an i.v. infusion of isotonic saline at 55 μL min^−1 throughout the duration of the experiment and were allowed 4-6 hours to recover from anesthesia. Arterial catheters were connected to a pressure transducer (MLT0670, ADInstruments, Sydney, Australia), which was connected to Powerlab 8/30 (ADInstruments) for recording of pulsatile and mean arterial blood pressure (MAP) and heart rate (HR). Blood pressure and HR were visualized using LabChart software (v8.1.5; ADInstruments). […] Following this control period, drug or vehicle (isotonic saline) was injected into the femoral vein catheter at a volume of 2 cc kg^−1, and urines were collected in 10 minute periods for a span of 90 minutes. […] All groups are n=6. Urine volume was measured gravimetrically, urine sodium and potassium concentrations were measured using flame photometry (model 943; Instrumentation Laboratories, Lexington, MA), and urine osmolality was measured using a vapor pressure osmometer (model 5600; WESCOR, Logan, UT).
(§3) Experimental Design and Analysis: All results are expressed as mean±SEM. […] Means between groups for total urine output, Na^+ concentration, K^+ concentration, and urine osmolality were compared using a Student's t-test. Statistical significance was characterized as P<0.05. Statistics were carried out using Prism 7.05 software (GraphPad Software, Inc., San Diego, CA) and IBM SPSS Statistics (IBM, Armonk, NY).

[6] = test system: conscious Sprague-Dawley rats; assay: Metabolic cage renal excretory studies, oral gavage (Example 3); conditions: oral gavage, mean±SEM
Experimental: as §2
Metabolic Cage Renal Excretory Studies: Rats were placed in metabolic cages (model 18cv, Fenco, Cataumet, MA) for 2 hours to allow for acclimation and voiding of residual urine. Following the acclimation period, rats were volume loaded with 20 cc kg^−1 drug or vehicle (isotonic saline) via oral gavage. Urines were collected each hour over a 5-hour period. Following completion of the study rats were returned to their home cages. […] These points are marked on the figures with number of measurements in parentheses.
as §3

Sprague-Dawley rats [7] = assay: Prevention of diuretic resistance to twice daily furosemide by nalfurafine, 5-hour urine (FIG. 15)
Experimental: as §1, with “M PBS, IP)” for “M PBS) orally (gavage)”, “pm) of each day, with” for “pm) and”, “urine” for “urine was”, “5-hours starting immediately” for “5-hours”, “first injection.” for “first oral treatment.”, “for 4” for “for 8”

[8] = ICV norBNI (1 μg/5 μL) pretreatment
[9] = IV norBNI (30 mg/kg) pretreatment
[10] = difelikefalin 10 μg/kg IV, no pretreatment
[11] = i.v. bolus, cumulative 90-min urine, same doses, mean±SEM
[12] = cumulative 5-hour urine, same doses

Difelikefalin
Effect on HR [1, 8]: No changes in HR
Effect on MAP [1, 8]: no significant change in MAP
Total urine output ([1]; ICV norBNI (1 μg/5 μL) pretreatment, difelikefalin 10 μg/kg or nalfurafine 5 μg/kg IV, 90 min): 5.49 ± 0.75 mL
Urine osmolality [1, 8]: 280 ± 26.99 mmol/kg
Urine potassium concentration [K+] [1, 8]: 13.63±3.05 μeq/mL
Urine sodium concentration [Na+] [1, 8]: 47.92±8.30 μeq/mL
Total urine output ([1]; ICV vehicle (5 μL) pretreatment, difelikefalin 10 μg/kg or nalfurafine 5 μg/kg IV, 90 min): 9.64 ± 0.52 mL
Effect on HR ([1]; ICV vehicle pretreatment): No changes in HR
MAP peak Δ ([1]; ICV vehicle pretreatment, peak at 60 min (difelikefalin), 50 min (nalfurafine)): −4 mmHg
Urine osmolality ([1]; ICV vehicle pretreatment): 170.7 ± 12.04 mmol/kg
Urine potassium concentration [K+] ([1]; ICV vehicle pretreatment): 8.16±1.81 μeq/mL
Urine sodium concentration [Na+] ([1]; ICV vehicle pretreatment): 45.24±6.67 μeq/mL
Effect on HR [1, 9]: slight but statistically significant increases in HR
MAP peak Δ ([1]; IV norBNI (30 mg/kg) pretreatment, 80-minute peak for difelikefalin): −4.5 mmHg
Total urine output ([1]; IV norBNI (30 mg/kg) pretreatment, difelikefalin 10 μg/kg or nalfurafine 5 μg/kg IV, 90 min): 4.44 ± 0.28 mL
Urine osmolality [1, 9]: 515 ± 35.8 mmol/kg
Urine potassium concentration [K+] [1, 9]: 27.78±5.35 μeq/mL
Urine sodium concentration [Na+] [1, 9]: 140.4±10.7 μeq/mL
Total urine output ([1]; IV vehicle (2 cc/kg) pretreatment, difelikefalin 10 μg/kg or nalfurafine 5 μg/kg IV, 90 min): 9.49 ± 0.30 mL
Effect on HR ([1]; IV vehicle pretreatment): slight but statistically significant increases in HR
MAP peak Δ ([1]; IV vehicle pretreatment, peak at 70 min (difelikefalin), 60 min (nalfurafine)): −11 mmHg
Urine osmolality ([1]; IV vehicle pretreatment): 161.2 ± 9.98 mmol/kg
Urine potassium concentration [K+] ([1]; IV vehicle pretreatment): 5.66±1.04 μeq/mL
Urine sodium concentration [Na+] ([1]; IV vehicle pretreatment): 38.93±4.01 μeq/mL
Duration of the increase in urine flow rate [1, 10]: 50 min
Effect on HR [1, 10]: Neither IV saline nor difelikefalin altered HR
Time of peak diuresis [1, 10]: 30 min
Total urine output ([1]; difelikefalin 10 μg/kg IV, no pretreatment (FIG. 9B), 90-minute period, mean±SEM, n=6): 10.62 ± 0.47 mL
Urine osmolality [1, 10]: 169.70 ± 13.89 mmol/kg
Urine potassium concentration [K+] [1, 10]: 5.53±0.63 μeq/mL
Urine sodium concentration [Na+] [1, 10]: 32.22±6.48 μeq/mL
Effect on established diuretic resistance to furosemide ([2]; difelikefalin 20 μg/kg IP added on days 13-17, low sodium diet): rescues the established diuretic resistance
Effect on diuretic resistance to furosemide (Sprague-Dawley rats [3]; difelikefalin 20 μg/kg IP added to furosemide 10 mg/kg once daily): prevents the diuretic resistance

NS(=O)(=O)c1cc(C(=O)O)c(NCc2ccco2)cc1Cl [furosemide]
5-hour urine output at peak diuresis (Sprague-Dawley rats [4]; furosemide (20 mg/kg per method) orally twice per day, day 1): 13.97 ± 0.64 mL
5-hour urine output on day 6 (Sprague-Dawley rats [4]; furosemide alone orally twice per day, day 6): 5.61 ± 1.14 mL
Day of peak diuresis (Sprague-Dawley rats [4]; furosemide alone, oral): 1 days
Duration of the increase in urine flow rate above control ([5]; after i.v. bolus): 30 min
Time of peak diuresis (urine flow rate) ([5]; after i.v. bolus): 10 min
Effect on heart rate (HR) ([5]; i.v. bolus, 90-min protocol): did not produce any change in MAP or HR
Effect on MAP ([5]; i.v. bolus, diuretic alone, 90-min protocol): did not produce any change in MAP or HR
Potassium concentration [K+] in cumulative urine [5, 11]: 14.51±0.63 μeq ml^−1
Sodium concentration [Na+] in cumulative urine [5, 11]: 138±1.58 μeq ml^−1
Urine osmolality [5, 11]: 379.8 ± 15.33 mmol/kg
Total urine output ([5]; i.v. bolus, cumulative urine of 90-min protocol, nalfurafine 5 μg kg−1, furosemide 7.5 mg kg−1, HCTZ 2.5 mg kg−1, amiloride 2 mg kg−1, mean±SEM, n=6): 9.20 ± 0.75 mL
5-hour urine output on day 12 ([2]; furosemide 10 mg/kg IP once daily alone, low sodium diet, day 12): 4.43 ± 0.54 mL
5-hour urine output at peak diuresis ([2]; furosemide 10 mg/kg IP once daily, low sodium diet, day 1): 9.86 ± 0.76 mL
Day of peak diuresis ([2]; furosemide alone, low sodium diet): 1 days
Day of peak diuresis (Sprague-Dawley rats [3]; once daily IP for 10 days): 2 days
24-hour urine output on day 10 (Sprague-Dawley rats [3]; once daily IP, furosemide 10 mg/kg alone or with difelikefalin 20 μg/kg, day 10): 5.57 ± 0.63 mL
24-hour urine output at peak diuresis (Sprague-Dawley rats [3]; once daily IP, furosemide 10 mg/kg alone or with difelikefalin 20 μg/kg, mean±SEM): 14.98 ± 1.85 mL
Potassium concentration [K+] in cumulative urine [6, 12]: 23.94±1.02 μeq ml^−1
Sodium concentration [Na+] in cumulative urine [6, 12]: 96.76±2.66 μeq ml^−1
Total urine output ([6]; cumulative urine of 5-hour protocol, nalfurafine 150 μg kg−1, furosemide 50 mg kg−1, HCTZ 5 mg kg−1, amiloride 5 mg kg−1, n=6): 18.28 ± 0.67 mL
Day of peak diuresis (Sprague-Dawley rats [7]; twice daily IP for 4 days): 1 days
5-hour urine output on day 4 (Sprague-Dawley rats [7]; twice daily IP, furosemide 20 mg/kg alone or with nalfurafine 10 μg/kg, day 4): 7.41 ± 1.40 mL
5-hour urine output at peak diuresis (Sprague-Dawley rats [7]; twice daily IP, furosemide 20 mg/kg alone or with nalfurafine 10 μg/kg, mean±SEM): 13.99 ± 0.72 mL
